From ChEMBL document CHEMBL5512627, “Small-molecule agents for treating skin diseases” (Eur J Med Chem, 2024) come the findings set out here.

In assay [1] the target is T1, 3-oxo-5-alpha-steroid 4-dehydrogenase 1 (Homo sapiens, UniProt P18405).
T1 sequence (P18405 whole entry): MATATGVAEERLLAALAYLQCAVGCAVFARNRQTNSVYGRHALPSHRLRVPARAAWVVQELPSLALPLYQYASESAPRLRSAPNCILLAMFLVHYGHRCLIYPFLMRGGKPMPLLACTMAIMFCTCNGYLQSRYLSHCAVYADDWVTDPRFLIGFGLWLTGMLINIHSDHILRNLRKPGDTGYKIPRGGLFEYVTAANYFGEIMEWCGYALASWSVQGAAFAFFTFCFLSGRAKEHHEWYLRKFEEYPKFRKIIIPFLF
Put plainly: Inhibition of human steroid 5-alpha-reductase 1.

The nature of assay [2]: Inhibition of lipid synthesis in androgen stimulated Hamster flank gland. The assay is classed as functional, Mesocricetus auratus.
A short description of assay [3]: Upregulation of NE suppressed c-Kit expression in human epidermal melanocyte. The assay is classed as functional, cell-based.
For assay [4], the species on record is Mus musculus. The assay can be described thus: Anti-inflammatory activity in imiquimod-induced C57BL/6 mouse psoriasis model assessed as reduction in epidermal thickness at 200 uL relative to control. In kind it is functional. Also on record: scale not given: the % may be the effect or the level left.
Assay [5] is filed under the species Mus musculus. Put plainly: Anti-inflammatory activity in imiquimod-induced BALB/c mouse psoriasis model assessed as reduction in skin inflammation. The assay is classed as functional, organism-based.

In the case of `CC1=C2CCc3cc(/C=C/c4ccccc4)ccc3N2CCC1=O`, in assay [1], the IC50 (usually the concentration needed to halve the response being measured) came out at 14.2 nM.
Consider `C[C@]12C=CC(=O)C=C1CC[C@@H]1[C@@H]2C(=O)C[C@@]2(C)[C@H]1CC[C@]2(Cl)S(=O)(=O)Cc1ccccc1`, for which the “inhibition (INH)” value in assay [2] is reported as 70%.
As for `COC(=O)C1=CO[C@@H](O[C@@H]2O[C@H](CO)[C@@H](O)[C@H](O)[C@H]2O)[C@@H]2C(CO)=CC[C@H]12` [GENIPOSIDE], the EC50 (as a rule, the concentration at which the effect is half-maximal) in assay [3] is 1650 nM.
For `CCc1ccc(N(CC(C)C)S(=O)(=O)c2ccc(OCC3CCOCC3)c(CO)c2)cc1` [GSK2981278], the Activity in the assay listed under Mus musculus [4] is 23%.
For the compound `CN1C(=O)[C@@H](NC(=O)c2n[nH]c(Cc3ccccc3)n2)COc2ccccc21` [GSK2982772], the EC50 in the assay filed under Mus musculus [5] stood at 4 nM.
